Measured values from patent EP0565593B1, “REDUCING PESTICIDAL INTERACTIONS IN CROPS” (priority 1990, dated 1992).
Values joined by “and” are separate entries in the source; they are usually repeats but may differ in a detail not shown here. Identical values can stand only once. Like-named read-outs stand apart in the source and are kept apart here.

Legend:
Shattercane (SHCA) = format: in vivo
Velvetleaf (VELE) [1] = format: in vivo, Abutilon theophrasti
Giant foxtail (GIFT) = assay: whole plant or invertebrate; format: in vivo; conditions: in vivo
Velvetleaf (VELE) [2] = assay: whole plant or invertebrate; format: in vivo, Abutilon theophrasti; conditions: in vivo
[3] = Antidote 4.48 + Biocide No. 1 8.96 Kg/Ha PPI, Herb. No. 8 0.07, 5 DAP, before herbicide application
[4] = Antidote 4.48 + Biocide No. 1 8.96 Kg/Ha PPI, Herb. No. 8 0.07 POE, 13 DAP
[5] = Antidote 4.48 + Biocide No. 1 8.96 Kg/Ha PPI, Herbicide No. 7 0.28 POE, 13 days after planting
[6] = Herb. […], 13 DAP, after herbicide application
[7] = Table 14: Herbicide No. 7 (ACCENT) 0.84 Kg/Ha POE + Biocide No. 2 8.96 Kg/Ha PPI + antidote 4.48 Kg/Ha PPI, 13 days after planting, 8 days after herbicide
[8] = […], 13 days after planting, 8 days after herbicide
[9] = […], observed 10 days after herbicide application
[10] = Herb. […], 5 DAP, before herbicide application

## CCOC(=O)c1cnoc1-c1ccc(Cl)cc1Cl [compound 30]
Shattercane (SHCA); [3]
  % Inhibition 5 DAP SHCA: 50%
Shattercane (SHCA); [4]
  % Inhibition 13 DAP SHCA: 75%
Shattercane (SHCA); [5]
  % Inhibition SHCA: 85%
Shattercane (SHCA); [6]
  % Inhibition 13 DAP SHCA: 95%
Shattercane (SHCA); [7]
  % Inhibition SHCA: 90%
Shattercane (SHCA); [8]
  % Inhibition SHCA: 90%
Shattercane (SHCA); [9]
  % Inhibition SHCA: 70%
Shattercane (SHCA); in vivo
  % Inhibition 5 DAP SHCA: 25%
  % Inhibition 13 DAP SHCA: 95%
  % Inhibition SHCA: 90% and 60% and 70%
Velvetleaf (VELE) [1]; [3]
  % Inhibition 5 DAP VELE: 75%
Velvetleaf (VELE) [1]; [4]
  % Inhibition 13 DAP VELE: 95%
Velvetleaf (VELE) [1]; [5]
  % Inhibition VELE: 95%
Velvetleaf (VELE) [1]; [10]
  % Inhibition 5 DAP VELE: 90%
Velvetleaf (VELE) [1]; [6]
  % Inhibition 13 DAP VELE: 95%
Velvetleaf (VELE) [1]; [7]
  % Inhibition VELE: 100%
Velvetleaf (VELE) [1]; [8]
  % Inhibition VELE: 100%
Velvetleaf (VELE) [1]; [9]
  % Inhibition VELE: 95%
Velvetleaf (VELE) [1]; in vivo
  % Inhibition 5 DAP VELE: 80%
  % Inhibition 13 DAP VELE: 95%
Giant foxtail (GIFT)
  % Inhibition GIFT: 65% and 80% and 90% and 75% and 95%
Velvetleaf (VELE) [2]
  % Inhibition VELE: 90% and 95% and 100%
Corn; [3]
  % Inhibition 5 DAP Corn: 10%
Corn; [4]
  % Inhibition 13 DAP Corn: 50%
Corn; [5]
  % Inhibition Corn: 55%
Corn; [10]
  % Inhibition 5 DAP Corn: 0%
Corn; [7]
  % Inhibition Corn: 30%
Corn; [8]
  % Inhibition Corn: 25%
Corn; [9]
  % Inhibition Corn: 70%
Corn; in vivo
  % Inhibition 5 DAP Corn: 10%
  % Inhibition 13 DAP Corn: 56%
  % Inhibition Corn: 50% and 35% and 40%
  effect on corn before application of the herbicide: Some injury
